Literature values in patent US10709668B2, “Sprinkle formulations of acamprosate” (priority 2015, dated 2020).

Experiments:
[1] = humans
[2] = subjects with autism and fragile x syndrome (WO 2010093859)

CC(=O)NCCCS(=O)(=O)O [acamprosate, 3-(Acetylamino)propylsulfonic acid]
Oral bioavailability [1]: about 11%
Improvement in primary outcomes (CGI-I, CGI-S) [2]: marked improvements
